Laboratory results from patent US6537522B1, “Neuroprobes for mapping monoamine reuptake sites” (Amersham PLC, priority 1992, dated 2003).
Like-named read-outs stand apart in the source and are kept apart here.

Columns and labels:
[1] = biological target: T1, DAT (dopamine transporter) (Rattus norvegicus, UniProt P23977); assay: DAT assay, [3H]GBR-12935 binding, rat brain corpus striatum membranes; details: for selectivity: DAT vs 5-HTT / selectivity: DAT vs NET: ratio of Ki values
T1 construct: a crude membrane fraction of homogenates of rat brain corpus striatum (for DAT assays); from tissue; host or cells: rat brain corpus striatum, crude membrane fraction
T1 sequence (P23977 whole entry): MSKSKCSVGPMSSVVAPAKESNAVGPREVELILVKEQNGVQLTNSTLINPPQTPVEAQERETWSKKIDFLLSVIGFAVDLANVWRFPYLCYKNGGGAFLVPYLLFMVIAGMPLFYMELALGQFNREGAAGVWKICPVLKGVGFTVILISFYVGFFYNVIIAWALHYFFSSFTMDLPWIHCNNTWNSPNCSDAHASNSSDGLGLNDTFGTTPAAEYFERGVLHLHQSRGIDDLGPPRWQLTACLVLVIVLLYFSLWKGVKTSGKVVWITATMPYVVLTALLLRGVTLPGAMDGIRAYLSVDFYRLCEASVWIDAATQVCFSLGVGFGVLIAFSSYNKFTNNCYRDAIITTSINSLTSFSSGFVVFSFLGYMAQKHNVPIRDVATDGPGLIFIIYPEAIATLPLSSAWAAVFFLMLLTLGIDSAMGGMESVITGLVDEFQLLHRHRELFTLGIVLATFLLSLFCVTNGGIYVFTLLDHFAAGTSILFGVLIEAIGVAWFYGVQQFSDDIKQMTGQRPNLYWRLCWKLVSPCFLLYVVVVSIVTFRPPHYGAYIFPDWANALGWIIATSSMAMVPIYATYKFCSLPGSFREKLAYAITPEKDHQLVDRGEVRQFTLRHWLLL
Method: (§1) N-phthalimidopropyl-β-CIT (see Example 10) was analyzed as follows. Stock solutions (1 mM) of test agents were made in 95% ethanol/DMSO (1/1, v/v) and stored at −5° C. until used by diluting in a large excess of each assay buffer. Agents are tested at six concentrations in duplicate, with a crude membrane fraction of homogenates of rat brain corpus striatum (for DAT assays) in Tris-citrate buffer (pH 7.4) containing Na^+ ([…]) and Mg^2+ (4 mM) or frontoparietal cerebral cortex (for 5-HTT and NET) in 50 mM Tris-HCl buffer (pH 7.4) containing Na^+ ([…]) and K^+ (5 mM) following methods reported by Neumeyer et al., J. Med. Chem. 37, 1558-1561 (1991), the whole of which is incorporated by reference herein.

5-HTT (5-HT transporter) = biological target: T2, 5-HTT (5-HT transporter) (Rattus norvegicus, UniProt P31652); assay: 5-HTT assay, [3H]paroxetine binding, rat frontoparietal cerebral cortex membranes
T2 construct: or frontoparietal cerebral cortex (for 5-HTT and NET); from tissue; host or cells: rat brain frontoparietal cerebral cortex, crude membrane fraction
T2 sequence (P31652 whole entry): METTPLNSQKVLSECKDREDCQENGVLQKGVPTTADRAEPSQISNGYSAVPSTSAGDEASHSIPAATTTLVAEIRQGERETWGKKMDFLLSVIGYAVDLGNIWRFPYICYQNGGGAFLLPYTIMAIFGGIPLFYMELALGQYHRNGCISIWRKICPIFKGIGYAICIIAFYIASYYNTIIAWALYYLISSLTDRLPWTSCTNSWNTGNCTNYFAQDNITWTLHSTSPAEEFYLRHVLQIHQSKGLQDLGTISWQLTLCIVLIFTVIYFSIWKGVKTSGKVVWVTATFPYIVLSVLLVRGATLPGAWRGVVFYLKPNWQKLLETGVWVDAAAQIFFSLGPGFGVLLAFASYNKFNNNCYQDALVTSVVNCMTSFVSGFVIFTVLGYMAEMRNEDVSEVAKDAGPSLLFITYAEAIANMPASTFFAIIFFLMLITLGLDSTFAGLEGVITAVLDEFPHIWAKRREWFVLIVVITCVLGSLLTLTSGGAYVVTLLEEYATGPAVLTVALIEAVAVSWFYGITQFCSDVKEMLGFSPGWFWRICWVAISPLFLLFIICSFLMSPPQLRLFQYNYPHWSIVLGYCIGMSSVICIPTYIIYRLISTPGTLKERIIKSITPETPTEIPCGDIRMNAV
Method: as §1

[2] = biological target: T3, NET (norepinephrine transporter) (Rattus norvegicus, UniProt Q63380); assay: NET assay, [3H]nisoxetine binding, rat frontoparietal cerebral cortex membranes
T3 construct: or frontoparietal cerebral cortex (for 5-HTT and NET); from tissue; host or cells: rat brain frontoparietal cerebral cortex, crude membrane fraction
T3 sequence (Q63380 1-617): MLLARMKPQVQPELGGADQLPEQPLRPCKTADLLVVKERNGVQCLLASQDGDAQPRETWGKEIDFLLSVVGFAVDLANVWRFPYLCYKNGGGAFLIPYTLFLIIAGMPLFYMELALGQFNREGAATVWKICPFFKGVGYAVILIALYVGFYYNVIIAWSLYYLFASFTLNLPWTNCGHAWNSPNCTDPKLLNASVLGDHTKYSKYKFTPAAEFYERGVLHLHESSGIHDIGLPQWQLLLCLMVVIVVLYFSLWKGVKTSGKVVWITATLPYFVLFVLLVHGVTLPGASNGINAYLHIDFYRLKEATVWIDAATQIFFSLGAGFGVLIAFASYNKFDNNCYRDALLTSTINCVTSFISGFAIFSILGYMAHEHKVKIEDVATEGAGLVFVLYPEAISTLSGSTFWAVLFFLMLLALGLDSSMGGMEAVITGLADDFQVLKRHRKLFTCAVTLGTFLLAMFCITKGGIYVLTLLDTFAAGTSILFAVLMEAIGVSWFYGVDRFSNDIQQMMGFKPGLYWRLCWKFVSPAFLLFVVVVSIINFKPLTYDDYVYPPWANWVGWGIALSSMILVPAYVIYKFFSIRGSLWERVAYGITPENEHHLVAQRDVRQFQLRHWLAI
Method: as §1

[3] = tested on: dopamine and serotonin reuptake sites; details: 3 μmol/kg IV at 200 min pi, during 100 min after injection
Method: With reference to FIG. 4, five SPECT (single photon emission computer tomography) experiments were performed with four female baboons (Papio anubis, 10-12 kg) under isoflurane anesthesia. […] Serial 1-2 min images were reconstructed assuming uniform attenuation equal to that of water in an ellipse drawn around the brain. Data were decay corrected to time of injection.
Activity is expressed in arbitrary units known from phantom studies to be linear with radioactive concentrations.

[4] = tested on: dopamine and serotonin reuptake sites; assay: SPECT regional brain activity after injection of [123I]-β-CIT (six experiments); type: in vivo, baboon (Papio anubis)
Method: The final product was formulated in 6 ml sterile saline containing 5-10% ethanol.
Data were decay-corrected to the time of injection.
The highest activities were found in the striatal region and reached peak levels at 179±9 min (n=6) post injection (p.i.) (FIG. 2). Striatal activity was monitored in two animals for an additional 190 and […] post peak values.

[5] = tested on: dopamine and serotonin reuptake sites; assay: SPECT regional brain activity after i.v. [123I]-β-CIT (five experiments); type: in vivo, baboon (Papio anubis)
Excerpt: Data were decay corrected to time of injection.

[6] = whole body scanning, thyroid uptake (in vivo deiodination); details: indicative of slow in vivo deiodination
Excerpt: The majority of striatal activity was associated with dopamine reuptake sites, and the majority of midbrain activity was associated with serotonin reuptake sites, which is consistent with the densities of these monoamine transporters measured in postmortem primate brains. Brain washout of activity was relatively slow, in part because of the high affinities of β-CIT for the monoamine transporters.

dopamine reuptake sites = dopamine reuptake sites (Papio anubis, UniProt A0A096MN61); assay: displacement of [3H]CFT binding in primate striatum tissue homogenates; set-up: species or system baboon; details: mean ± SEM (n)
dopamine reuptake sites, sequence (A0A096MN61 1-620): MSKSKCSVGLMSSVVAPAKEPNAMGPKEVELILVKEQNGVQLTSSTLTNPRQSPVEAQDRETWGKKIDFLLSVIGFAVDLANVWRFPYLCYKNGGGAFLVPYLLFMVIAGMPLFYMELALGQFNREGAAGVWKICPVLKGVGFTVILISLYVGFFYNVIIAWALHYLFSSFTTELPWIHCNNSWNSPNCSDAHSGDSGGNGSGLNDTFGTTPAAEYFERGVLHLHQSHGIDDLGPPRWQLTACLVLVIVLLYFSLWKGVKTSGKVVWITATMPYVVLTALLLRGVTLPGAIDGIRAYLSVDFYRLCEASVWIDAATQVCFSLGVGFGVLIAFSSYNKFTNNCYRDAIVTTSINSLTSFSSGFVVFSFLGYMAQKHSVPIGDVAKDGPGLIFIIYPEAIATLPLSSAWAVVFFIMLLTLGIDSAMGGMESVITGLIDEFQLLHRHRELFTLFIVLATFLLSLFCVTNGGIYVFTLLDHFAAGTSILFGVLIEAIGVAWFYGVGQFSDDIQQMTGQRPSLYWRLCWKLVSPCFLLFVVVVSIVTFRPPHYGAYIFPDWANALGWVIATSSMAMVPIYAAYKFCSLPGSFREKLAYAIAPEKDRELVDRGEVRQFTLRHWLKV
Excerpt: Values represent means±SEM (of n experiments).

serotonin reuptake sites = biological target: T4, serotonin reuptake sites (Rattus norvegicus, UniProt P31652); assay: displacement of [3H]paroxetine binding in rat cortical membrane homogenates; details: for displacement of [3H]paroxetine Hill slope (nH): mean ± SEM (n)
T4 construct: homogenates prepared from rat cortical membranes; from tissue; host or cells: rat cortical membranes
T4 sequence (P31652 whole entry): as the sequence (P31652 whole entry) above

[7] = tested on: dopamine and serotonin reuptake sites; details: within 60-120 min
Method: Six SPECT experiments were performed in four female baboons (10 kg Papio anubis) under isoflurane anesthesia. […] Data were decay-corrected to the time of injection.

[8] = at time of peak striatal uptake, n=6
[9] = 0.4 μmol/kg i.v. at 180 min p.i.

COC(=O)[C@H]1[C@@H](c2ccc(I)cc2)C[C@@H]2CC[C@H]1N2CCCN1C(=O)c2ccccc2C1=O [Example 10, N-phthalimidopropyl-β-CIT]
Ki ([1]; [3H]GBR-12935 0.4 nM, rat corpus striatum, 45 min 4° C., read-out: affinity (Ki) DAT): 9.1 ± 1.1 nM | selectivity: DAT vs 5-HTT [1]: 0.065 | selectivity: DAT vs NET [1]: 8.10 | Ki (5-HTT (5-HT transporter); [3H]paroxetine 0.2 nM, rat cerebral cortex, 60 min 20° C., read-out: affinity (Ki) 5-HTT): 0.59 ± 0.07 nM | Ki ([2]; [3H]nisoxetine 0.8 nM, rat cerebral cortex, 180 min 4° C., read-out: affinity (Ki) NET): 73.7 ± 11.6 nM

CNC1CC(c2ccc(Cl)c(Cl)c2)c2ccccc21 (stereo not drawn) [Lu 19-005, indatraline]
decrease of striatal [123I]-β-CIT activity [3]: 65%

COC(=O)C1C(c2ccc([123I])cc2)CC2CCC1N2C (stereo not drawn) [[^123I]-β-CIT, [^123I]-2-β-Carbomethoxy-3-β-(4-iodophenyl)tropane]
ratio of regional brain activity, cerebellum (striatum 100%) [4, 8]: 10.0±1.5% | ratio of regional brain activity, frontal lobe (striatum 100%) [4, 8]: 10.3±1.0% | ratio of regional brain activity, hypothalamus (striatum 100%) [4, 8]: 38.1±5.2% | ratio of regional brain activity, occipital lobe (striatum 100%) [4, 8]: 13.5±0.8% | ratio of regional brain activity, temporo-parietal lobes (striatum 100%) [4, 8]: 14.3±2.0% | washout of midbrain activity t½ ([4]; midbrain, n=3): 4.9 ± 0.983 h | time of peak midbrain activity post injection ([4]; midbrain, n=6): 45 ± 16 min | striatal activity after peak ([4]; one animal, remaining 190 min of the experiment): virtually unchanged | washout of striatal activity t½ ([4]; second animal, exponential fit, r=0.92): 27 h | time of peak striatal activity post injection ([4]; striatum, n=6, mean ± S.E.M.): 179 ± 9 min | striatal to cerebellar ratio ([5]; at time of striatal peak): 9.8±1.6 | decrease of striatal activity from striatal peak to end of experiment ([5]; control animal followed an additional 200 min): 0% | decrease of striatal activity from striatal peak to end of experiment ([5]; control animal followed an additional 260 min): 12% | time of peak midbrain levels pi ([5]; midbrain, n=5): 43 ± 5 min | time of peak striatal uptake postinjection ([5]; striatal region, mean ± SEM): 154 ± 19 min | thyroid uptake [6]: low

COC(=O)[C@H]1[C@@H](c2ccc(F)cc2)C[C@@H]2CC[C@H]1N2C [compound 2, 2β-carbomethoxy-3β-(4-fluorophenyl)tropane, reference compound]
displacement of [3H]CFT Hill slope (nH) (dopamine reuptake sites): 0.75 ± 0.01 (3) | IC50 (serotonin reuptake sites): 479 ± 59 nM | displacement of [3H]paroxetine Hill slope (nH) (serotonin reuptake sites; rat cortical membranes): 1.34 ± 0.22 (3) | Ki (5-HTT (5-HT transporter)): 181 ± 21 nM | Ki [2]: 635 ± 110 nM | displacement of midbrain [123I]-β-CIT levels [7, 9]: 72% | displacement of striatal [123I]-β-CIT levels [7, 9]: 57% | cumulative displacement of midbrain [123I]-β-CIT levels ([7]; 2.0 μmol/kg at 298 min p.i.): 91% | cumulative displacement of striatal [123I]-β-CIT levels ([7]; 2.0 μmol/kg at 298 min p.i.): 83%

COC(=O)[C@H]1[C@@H](c2ccc(I)cc2)C[C@@H]2CC[C@H]1N2C [compound 3a, 2β-carbomethoxy-3β-(4-iodophenyl)tropane]
displacement of [3H]CFT Hill slope (nH) (dopamine reuptake sites): 0.79 ± 0.04 (3) | IC50 (serotonin reuptake sites): 3.78 ± 0.53 nM | displacement of [3H]paroxetine Hill slope (nH) (serotonin reuptake sites; rat cortical membranes): 0.82 ± 0.08 (6) | Ki [1]: 1.4 ± 0.2 nM | selectivity: DAT vs 5-HTT [1]: 0.320 | selectivity: DAT vs NET [1]: 2.00 | Ki (5-HTT (5-HT transporter)): 0.46 ± 0.06 nM | Ki [2]: 2.8 ± 0.4 nM

COC(=O)C1C(c2ccc(I)cc2)CC2CCC1N2C (stereo not drawn) [compound 3b, 2-α-Carbomethoxy-3-β-iodophenyltropane]
displacement of [3H]CFT Hill slope (nH) (dopamine reuptake sites): 0.70 ± 0.07 (2) | displacement of [3H]paroxetine Hill slope (nH) (serotonin reuptake sites; rat cortical membranes): 0.73 ± 0.04 (2) | IC50 (serotonin reuptake sites; rat cortical membranes, mean ± SEM, read-out: displacement of [3H]paroxetine IC50): 210 ± 86 nM
